Results: ChEMBL document CHEMBL5725463, “Amino-dihydrothiazine and amino-dioxido dihydrothiazine compounds as beta-secretase antagonists and methods of use” (2017)

Tests used:
[1] = molecular target: Beta-secretase 1 (Homo sapiens, UniProt P56817); assay: In Vivo Inhibition of Beta-Secretase: Several animal models, including mouse, rat, dog, and monkey, may be used to screen for inhibition of beta-secretase activity in vivo following administration of a test compound sample. Animals used in this invention can be wild type, transgenic, or gene knockout animals. For example, the Tg2576 mouse model, prepared and conducted as described in Hsiao et al., 1996, Science 274, 99-102, and other non-transgenic or gene knockout animals are useful to analyze in vivo inhibition of Amyloid beta peptide (Abeta) production in the presence of inhibitory test compounds. Generally, 2 to 18 month old Tg2576 mice, gene knockout mice or non-transgenic animals are administered test compounds formulated in vehicles, such as cyclodextran, phosphate buffers, hydroxypropyl methylcellulose or other suitable vehicles. […]; type: organism-based
[2] = molecular target: Cathepsin D (Homo sapiens, UniProt P07339); assay: In Vitro Enzymatic: Recombinant Cat D was expressed in CHO cells. The assay buffer for CathepsinD is 0.05 M citrate pH 3.5, 10% DMSO final, 5 mM CHAPS. The Cat D enzyme (9 nM) is pre-incubated for one hour with inhibitors, typically in about 1 uL of DMSO according to a serial dilution, is added thereto. The assays are effectively started by the addition of different FRET substrates (20 nM for Cat D) and the combination is incubated for one hour. The FRET assay is terminated with by addition of Tris buffer, which raises the pH to neutrality, and the fluorescence is determined. The FRET substrate is a peptide with commercially available fluorophore and quencher, on opposite sides of the BACE cleavage site. The Cat D substrate peptide sequence is based on sequence #1 of Table 1 from Gulnik et al. FEBS Letters v413 p 379-384 1997. Proteolytic cleavage of the FRET substrate releases quenching of fluorescence (Cat D excitation 500 nm and emission 580 nm).Alternatively, a Cat D assay may also be run according to the procedure described in the article, Characterization of new fluorgenic substrates for the rapid and sensitive assay of cathepsin E and cathepsin D, J. Biochem., 125:1137, 1999.; type: cell-based
Cathepsin D, sequence (P07339 65-162 limits assumed): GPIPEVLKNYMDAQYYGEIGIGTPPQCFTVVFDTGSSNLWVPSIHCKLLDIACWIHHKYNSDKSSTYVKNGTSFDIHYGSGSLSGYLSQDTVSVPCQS
Cathepsin D, sequence (P07339 169-412 limits assumed): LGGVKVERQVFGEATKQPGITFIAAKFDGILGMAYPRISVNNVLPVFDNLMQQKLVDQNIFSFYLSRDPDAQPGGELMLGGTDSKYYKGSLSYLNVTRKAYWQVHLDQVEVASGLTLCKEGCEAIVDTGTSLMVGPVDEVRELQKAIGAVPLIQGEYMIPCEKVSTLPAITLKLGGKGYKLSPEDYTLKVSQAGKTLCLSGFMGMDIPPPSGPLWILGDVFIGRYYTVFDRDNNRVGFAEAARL

Beta-secretase 1, sequence (P56817 whole entry): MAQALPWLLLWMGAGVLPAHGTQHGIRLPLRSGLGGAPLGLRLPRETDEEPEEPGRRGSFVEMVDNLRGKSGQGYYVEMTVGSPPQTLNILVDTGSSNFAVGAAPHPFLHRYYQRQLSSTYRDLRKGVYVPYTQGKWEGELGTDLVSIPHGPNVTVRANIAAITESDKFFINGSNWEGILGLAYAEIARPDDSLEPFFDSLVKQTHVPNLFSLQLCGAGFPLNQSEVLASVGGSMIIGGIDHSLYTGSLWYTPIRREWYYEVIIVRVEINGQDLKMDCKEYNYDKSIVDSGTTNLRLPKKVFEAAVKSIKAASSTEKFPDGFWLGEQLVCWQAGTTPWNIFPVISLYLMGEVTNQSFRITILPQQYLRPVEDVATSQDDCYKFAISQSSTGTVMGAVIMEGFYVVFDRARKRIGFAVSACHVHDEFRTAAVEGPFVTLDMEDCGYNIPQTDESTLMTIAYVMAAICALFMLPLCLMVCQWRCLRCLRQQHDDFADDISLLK

IC50 [1] [µM] | IC50 [2] [µM] | SMILES
0.0016 | 84.7 | Cc1cc(Cl)cnc1C(=O)Nc1ccc(F)c([C@]2(C)CS(=O)(=O)C3(CCC3)C(N)=N2)c1
0.00076 | 134 | Cc1cc(C#N)cnc1C(=O)Nc1ccc(F)c([C@]2(C)CS(=O)(=O)C3(CCC3)C(N)=N2)c1
